Laboratory results: PMC6627486, “Ipomoeassin F Binds Sec61α to Inhibit Protein Translocation” (Journal of the American Chemical Society, 2019)

System: secNLuc-ATZ secretion in U2-OS cells
Assay: U2-OS secNLuc-ATZ secretion assay
Assay type: cell-based
Details: Homo sapiens, U2OS, 24 h, read-out: secNLuc-ATZ secretion inhibition EC50
Procedure: The secNLuc-ATZ assay has been described elsewhere.18 Briefly, U2-OS cells stably expressing secNLuc-ATZ were cultured in McCoy’s 5A supplemented with 10% bovine growth serum (Hyclone SH30540.03), 50 units/mL penicillin, and 50 µg/mL streptomycin and plated into 1536-well black, clear-bottom treatment plates (Aurora Microplates #ABI121000A) at 1200 cells/well in 5 µL volume using a Multidrop Combi dispenser (ThermoFisher). Cells were returned to 37 °C for 1 h to adhere and compound or vehicle control was added to wells using a 1536-well pin-tool transfer device (Wako Automation, San Diego). Cells were incubated for 24 h and secNLuc-ATZ-containing media was transferred using an ATS-100 acoustic dispenser (EDC Biosystems, Fremont, CA) from the treatment plate to a white, solid-bottom 1536-well recipient plate (Greiner Bio One #789175-F) containing 3 µL/well of 1X PBS. […]
Cells were incubated at 37 °C for 24 h and secreted luciferase was detected by adding 1 µL of coelenterazine substrate to each well using a BioRAPTR FRD workstation. […]
Luminescence was measured using a ViewLux microplate imager equipped with clear filters.
For cell viability assays, cells were cultured, plated, and treated with test compounds as outlined for the secretion assays. 48 h after treatment, viability was assessed using a CellTiter-Glo assay by adding 3

For C/C=C(\C)C(=O)O[C@@H]1[C@@H](O)[C@@H]2O[C@H]3[C@H](O[C@@H](CCCCC)CCCCCCC(=O)CCC(=O)OC[C@@H](O2)[C@H]1OC(=O)/C=C/c1ccccc1)O[C@H](C)[C@H](OC(C)=O)[C@@H]3O [ipomoeassin F], the EC50 was ~5 nM.
